Laboratory results published in patent publication US9718851B2, “Deuterated nucleoside/tide derivatives” (Enanta Pharmaceuticals, Inc., priority 2014, dated 2017).

system: HCV replicon RNA, genotype 1a (Huh-1a7 replicon cell line); experiment: HCV Replicon Assay - qRT-PCR, genotype 1a replicon; assay type: cell-based, HCV (strain H77; conditions: Hepatitis C virus; HCV genotype 1a replicon, HCV RNA by qRT-PCR normalized to GAPDH RNA
Text: HCV replicon cell lines (kindly provided by R. Bartenschlager) isolated from colonies as described by Lohman et al. (Lohman et al. (1999) Science 285: 110-113, expressly incorporated by reference in its entirety) and used for all experiments. One of the HCV replicon cell lines (strain Conl, genotype 1b) has the nucleic acid sequence set forth in EMBL Accession No.: AJ242651, the coding sequence of which is from nucleotides 1801 to 8406. Another replicon cell line (strain H77, genotype 1a) was constructed as described by Yi et al. (Yi et al. (2004) Journal of Virology 78(15):7904-15). The coding sequences of the published HCV replicons were synthesized and subsequently assembled in plasmids using standard molecular biology techniques.
One replicon cell line (“SGR 11-7”) stably expresses HCV replicon RNA, genotype 1b, which consists of (i) the HCV 5′UTR fused to the first 12 amino acids of the capsid protein, (ii) the neomycin phosphotransferase gene (neo), (iii) the IRES from encephalomyocarditis virus (EMCV), and (iv) HCV NS2 to NS5B genes and the HCV 3′UTR. Another replicon cell line (“Huh-1a7”) described by Yi et al. (Yi et al. (2004) Journal of Virology 78(15):7904-15, expressly incorporated by reference in its entirety) stably expresses HCV replicon RNA, genotype 1a, which consists of (i) the HCV 5′UTR fused to the first 12 amino acids of the capsid protein, (ii) the HIV tat protein, (iii) the neomycin phosphotransferase gene (neo), (iv) the IRES from encephalomyocarditis virus (EMCV), and (v) HCV NS3 to NS5B genes that harbor cell culture adaptive mutations (Q1067R, K1691R, S2204I) and the HCV 3′UTR. […]
EC50 values of single agent compounds were determined by HCV RNA detection using quantitative RT-PCR, according to the manufacturer's instructions, with a TAQMAN® One-Step RT-PCR Master Mix Reagents Kit (Cat# AB 4309169, Applied Biosystems) on an ABI Model 7500 thermocycler. EC50 values of combinations are similarly determined by HCV RNA detection using quantitative RT-PCR. The TAQMAN primers to use for detecting and quantifying HCV RNA obtained from Integrated DNA Technologies. HCV RNA is normalized to GAPDH RNA levels in drug-treated cells, which is detected and quantified using the Human GAPDH Endogenous Control Mix (Applied Biosystems, AB 4310884E). […] Chemical agent cytotoxicity is evaluated using an MTS assay according to the manufacturer's directions (Promega). […]

SMILES | EC50 [nM]
[2H][C@@]1(O)[C@@H](CO[P@@](=O)(N[C@@H](C)C(=O)OC(C)C)Oc2ccccc2)O[C@@H](n2ccc(=O)[nH]c2=O)[C@]1(C)F [Example 1] | 100 to 1000
[2H][C@]1(CO[P@@](=O)(N[C@@H](C)C(=O)OC(C)C)Oc2ccccc2)O[C@@H](n2ccc(=O)[nH]c2=O)[C@](C)(F)[C@@H]1O [Example 2] | 100 to 1000
[2H]C([2H])(O[P@@](=O)(N[C@@H](C)C(=O)OC(C)C)Oc1ccccc1)[C@H]1O[C@@H](n2ccc(=O)[nH]c2=O)[C@](C)(F)[C@@H]1O [Example 3] | 100 to 1000
[2H]C([2H])(O[P@@](=O)(N[C@@H](C)C(=O)OC(C)C)Oc1ccccc1)[C@@]1([2H])O[C@@H](n2ccc(=O)[nH]c2=O)[C@](C)(F)[C@@H]1O [Example 4] | 100 to 1000
